Data taken from US6166013A, “Glucocortiocoid-selective agents” (Abbott Laboratories, priority 1999, dated 2000).
Read-outs that look alike come from different tables or passages of the source.

Columns and labels:
[1] = molecular target: T1, human estrogen receptor-alpha (Homo sapiens, UniProt P03372); test: soluble estrogen receptor-alpha (ER-α) binding assay, [3H]-estradiol
T1 construct: made in house; host or cells: yeast strain BJ2168 (copper induced)
T1 sequence (P03372 1-595): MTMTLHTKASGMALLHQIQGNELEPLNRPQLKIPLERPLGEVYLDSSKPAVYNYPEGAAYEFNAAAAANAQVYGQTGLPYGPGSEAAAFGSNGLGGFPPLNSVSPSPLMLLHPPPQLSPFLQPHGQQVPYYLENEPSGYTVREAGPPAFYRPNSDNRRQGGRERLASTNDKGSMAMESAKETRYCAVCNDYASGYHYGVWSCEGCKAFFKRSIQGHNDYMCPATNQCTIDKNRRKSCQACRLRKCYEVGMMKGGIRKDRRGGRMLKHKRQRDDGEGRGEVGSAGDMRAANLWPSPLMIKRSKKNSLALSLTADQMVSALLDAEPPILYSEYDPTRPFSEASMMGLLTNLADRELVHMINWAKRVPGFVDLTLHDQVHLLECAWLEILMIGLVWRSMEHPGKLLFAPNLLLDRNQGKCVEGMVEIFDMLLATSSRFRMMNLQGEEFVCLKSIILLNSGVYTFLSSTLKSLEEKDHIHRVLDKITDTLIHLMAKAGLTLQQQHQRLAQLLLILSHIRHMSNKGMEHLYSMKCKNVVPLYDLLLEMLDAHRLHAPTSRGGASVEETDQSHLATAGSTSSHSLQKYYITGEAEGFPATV
Source text: For soluble estrogen receptor-alpha (ER-α) binding assays, [^3 H]- Estradiol (120-140 Ci/mmol) was purchased from New England Nuclear (Boston, Mass.), 17-beta estradiol was purchased from Sigma Chemical Co. (St. Louis, Mo.), CHAPS and DTT were purchased from Boehringer Mannheim GmbH (W. Germany) and all other reagents were purchased from Sigma.
The human estrogen receptor-alpha cDNA was cloned into a yeast vector termed pYhERα and used to transform wild type yeast strain BJ2168 following the protocol outlined by Pham, T. A., Hwung Y. P., Santiso-Mere,D., McDonnell D. P., O'Malley, B. W., Ligand-Dependent and Independent Function of the Transactivation Regions of the Human Estrogen Receptor in Yeast, Mol. Endocrinol. […] The yeast was induced with copper for 16 hours after which the cells were harvested, washed and the receptor extract prepared in cold buffer via a Bead Beater (BioSpec Products, Bartlesville, Okla.). Aliquots of the receptor typically contained 5-10 mg/ml of total protein and were stored at -80° C. until used. Estradiol or other competing compounds were prepared as 5 mM stock solutions in either 100% ethanol or DMSO and serial dilutions were carried out in 1:1 DMSO-ethanol. The assay buffer consisted of the following: 300 mM potassium chloride, 10 mM Trizma Base, 2 mM DTT and 5 mM CHAPS, pH=7.5 at room temperature.
Assays were set up using a 96-well minitube system and incubations were carried out at 4° C. for 18 hours. Equilibrium under these conditions of buffer and temperature was achieved by 6-8 hours. Nonspecific binding was defined as that binding remaining in the presence of 1000 nM unlabeled estradiol. […] The amount of receptor-ligand complex was determined by liquid scintillation counting of the hydroxyapatite pellet after the addition of […] EcoScint A scintillation cocktail from National Diagnostics (Atlanta, Ga.).
After correcting for nonspecific binding, IC50 values were determined. […] The IC50 values were determined graphically from a log-logit plot of the data.

[2] = molecular target: T2, human glucocorticoid receptor-α [GRX] isoform (Homo sapiens, UniProt P04150); test: glucocorticoid receptor (GR) cytosol binding assay, [3H]-dexamethasone; conditions: displacement of [3H]-Dex (~0.9 nM), 4° C. overnight
T2 construct: purchased Ligand Pharmaceuticals (San Diego, Calif.); host or cells: insect SF21 cells (baculovirus)
T2 sequence (P04150 1-777): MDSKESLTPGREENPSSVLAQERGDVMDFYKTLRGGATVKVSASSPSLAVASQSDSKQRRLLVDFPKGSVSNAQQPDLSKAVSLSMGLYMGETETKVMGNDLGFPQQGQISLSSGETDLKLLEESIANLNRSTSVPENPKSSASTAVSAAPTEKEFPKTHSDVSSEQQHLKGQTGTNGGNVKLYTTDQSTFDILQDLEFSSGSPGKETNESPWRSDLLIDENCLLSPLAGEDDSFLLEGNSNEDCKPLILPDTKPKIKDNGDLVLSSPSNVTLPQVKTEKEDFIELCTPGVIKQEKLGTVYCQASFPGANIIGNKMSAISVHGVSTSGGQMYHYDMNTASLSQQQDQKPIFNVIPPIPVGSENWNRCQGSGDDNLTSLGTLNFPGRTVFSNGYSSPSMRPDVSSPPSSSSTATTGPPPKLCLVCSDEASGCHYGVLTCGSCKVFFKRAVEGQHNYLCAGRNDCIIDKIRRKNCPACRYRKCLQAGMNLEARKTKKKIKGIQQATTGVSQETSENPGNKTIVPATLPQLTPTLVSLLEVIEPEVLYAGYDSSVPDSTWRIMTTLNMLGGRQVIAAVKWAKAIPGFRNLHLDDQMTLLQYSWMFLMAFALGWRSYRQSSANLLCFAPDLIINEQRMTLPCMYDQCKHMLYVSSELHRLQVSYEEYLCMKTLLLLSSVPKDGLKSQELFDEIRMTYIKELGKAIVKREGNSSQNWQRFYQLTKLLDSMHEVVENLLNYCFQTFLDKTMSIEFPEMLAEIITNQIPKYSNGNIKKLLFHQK
Source text: Briefly, cytosol preparations of human glucocorticoid receptor-α [GRX] isoform and human progesterone receptor-A [PRA] isoform were obtained from Ligand Pharmaceuticals (San Diego, Calif.). Both receptor cDNAs were cloned into baculovirus expression vectors and expressed in insect SF21 cells. [^3 H]-dexamethasone (Dex, specific activity 82-86 Ci/mmole) and [^3 H]-progesterone (Prog, specific activity 97-102 Ci/mmol) were purchased from Amersham Life Sciences (Arlington Heights, Ill.). Glass fiber type C multiscreen MAFC NOB plates were from Millipore (Burlington, Mass.). Hydroxyapatide Bio-Gel HTP gel was obtained from Bio-Rad Laboratories (Hercules, Calif.). Tris(hydroxymethyl)aminomethane (Tris), ethylenediaminetetraacetic acid (EDTA), glycerol, dithiothreitol (DTT) and sodium moylybdate were obtained from Sigma Chemicals (St. Louis, Mo.). […]
After an overnight incubation, 50 μL of hydroxyapatite (25% weight/volume) slurry were added to each well and plates were incubated for 10 min at 4° C. in a plate shaker. […] The amount of radioactivity was determined with a Packard TopCount plate reader.
The Ki of test compounds was determined using the Cheng-Prusoff equation Ki =IC50 /(1+[L*]/[KL ]) where L* is the concentration of radioligand and KL is the dissociation constant of the radioligand determined from saturation analysis.

[3] = displacement of [3H]-estradiol (2-3 nM), 4° C., 18 hours, read-out: Ki ER-α

SMILES | Ki [2] | Ki [1, 3] | further results
CN(C)c1ccc(C(c2ccc(N(C)C)cc2)c2cc(Cl)ccc2Cl)cc1 [Example 24, 4',4"bis(dimethylamino)-2,5-dichlorotriphenylmethane] |  |  | Ki [1]: > 10 µM
CN(C)c1ccc(C(c2ccc(N(C)C)cc2)c2cc(NC(=O)/C=C/c3ccc([N+](=O)[O-])cc3)ccc2Cl)cc1 [Example 61, 4',4"bis(dimethylamino)-2-chloro-5-(4-nitrocinnamido)triphenylmethane] | 4.6 µM |  | 
CN(C(=O)OC(C)(C)C)c1ccc(C(c2ccc(N(C)C(=O)OC(C)(C)C)cc2)c2cc([N+](=O)[O-])ccc2Cl)cc1 [Example 35, 4',4"bis(N-(t-butoxycarbonyl) N-methylamino)-2-chloro-5-nitrotriphenylmethane] | 4.56 µM |  | 
CC(=O)OCCN(C)c1ccc(C(c2ccc(N(C)CCOC(C)=O)cc2)c2cc([N+](=O)[O-])ccc2Cl)cc1 [Example 31, 4',4"bis(N-(2-acetoxyethyl) N-methylamino)-2-chloro-5-nitrotriphenylmethane] |  | > 10 µM | 
CN(CCO)c1ccc(C(c2ccc(N(C)CCO)cc2)c2cc([N+](=O)[O-])ccc2Cl)cc1 [Example 32, 4',4"bis(N-(2-hydroxyethyl) N-methylamino)-2-chloro-5-nitrotriphenylmethane] |  | > 10 µM | 
